This passage reports inhibition results from patent US4164576A, “Benzoxazine carboxamides” (Shell Oil Company, priority 1978, dated 1979).

The subject of this test is swine adipose tissue. Briefly: Inhibition of lipogenesis (lipid synthesis from glucose-U-14C) in swine adipose tissue slices. Type of test: cell-based. The note with it: Sus scrofa, 100 micrograms per milliliter, 37° C., 2 hours, 5% DMSO, insulin, triplicate, read-out: Percent Inhibition of lipogenesis compared to control. From the text:
The manner in which they cause this effect is not known with certainty; it is believed that they interfere with the synthesis of fatty acids in the tissues. Their effectiveness for this purpose has been ascertained by immersing samples of swine adipose tissue in a liquid medium containing radioactive glucose and the test chemical for a period of time, then isolating the lipid from the treated tissue and determining the up-take of the radio-active carbon by means of scintillation counting techniques. These tests were conducted in swine adipose tissue because in swine, the primary site of lipogenesis--i.e., fatty acid synthesis--appears to be adipose tissue.
Described in more detail, the tests were conducted according to the following general procedure:
150 milligrams of slices of swine adipose tissue were incubated at 37° C. for 2 hours with shaking in 3 milliliters of Krebs-Rringer bicarbonate solution containing one-half the normal calcium ion concentration, 60 micromoles of glucose, 0.5 micro-Curie of glucose-U^14 C, and 300 microunits of insulin, and 5% dimethyl sulfoxide (DMSO). The test compounds were added as a solution or suspension in DMSO and were present at a concentration of 100 micrograms per milliliter of the incubation mixture.
The incubation was terminated by addition of 0.25 milliliter of 1 N sulfuric acid. The resulting mixture was extracted with a total of 25 milliliters of chloroform: methanol (2:1 v/v). The extracts were washed according to Folch et al. (J. Biol. Chem., 226, 497-509, (1957)), air dried, and counted in a liquid scintillation counter with 15 milliliters of counting fluid (two parts toluene containing 0.4% w/v New England Nuclear Omnifluor: 1 part Triton X-100). The tests were conducted in triplicate and were accompanied by control tests in which all ingredients,proportions and conditions were the same except that no test compound was included. From the data obtained were calculated the percent inhibition of lipid synthesis by the test compounds in each case. The data obtained from the tests are set out in Table 1, as the percent inhibition of lipogenesis compared to the results obtained in the control tests wherein only the test compound was omitted.
By inhibition is commonly meant how much of the control response was suppressed. As for `C=CCNC(=O)C1CNc2ccccc2O1` (centres unmarked) [Compound 1, 3,4-dihydro-N-(2-propenyl)-2H-1,4-benzoxazine-2-carboxamide], the inhibition at 100 µg/mL was 51%.
For `C=CCNC(=O)C1CNc2cc(C(F)(F)F)ccc2O1` (centres unmarked) [Compound 6, 6-(trifluoromethyl)-3,4-dihydro-N-(2-propenyl)-2H-1,4-benzoxazine-2-carboxamide], the inhibition at 100 µg/mL worked out at 57%.
Under `C=CCNC(=O)C1CNc2cccc(Cl)c2O1` (centres unmarked) [Compound 8, 8-chloro-3,4-dihydro-N-(2-propenyl)-2H-1,4-benzoxazine-2-carboxamide] stands 24%; under `C=CCNC(=O)C1CNc2cc(-c3ccccc3)ccc2O1` (centres unmarked) [Compound 11, 3,4-dihydro-6-phenyl-N-(2-propenyl)-2H-1,4-benzoxazine-2-carboxamide], 70%.
To `C=CCNC(=O)C1CNc2ccc(C)cc2O1` (centres unmarked) [Compound 10, 3,4-dihydro-7-methyl-N-(2-propenyl)-2H-1,4-benzoxazine-2-carboxamide] belongs 21%.
To `C=CCNC(=O)C1CNc2cc(Cl)c(Cl)cc2O1` (centres unmarked) [Compound 9, 6,7-dichloro-3,4-dihydro-N-(2-propenyl)-2H-1,4-benzoxazine-2-carboxamide] belongs 44%; to `C=CCNC(=O)C1CNc2cc(C)ccc2O1` (centres unmarked) [Compound 4, 6-methyl-3,4-dihydro-N-(2-propenyl)-2H-1,4-benzoxazine-2-carboxamide], 57%; to `C=CCNC(=O)C1CNc2cc(Cl)ccc2O1` (centres unmarked) [Compound 3, 6-chloro-3,4-dihydro-N-(2-propenyl)-2H-1,4-benzoxazine-2-carboxamide], 63%.
On to `C=CCNC(=O)C1CN(C)c2ccccc2O1` (centres unmarked) [Compound 2, 3,4-dihydro-4-methyl-N-(2-propenyl)-2H-1,4-benzoxazine-2-carboxamide], for which the inhibition at 100 µg/mL was 40%.
Under `C=CCNC(=O)C1CNc2cc(OC)ccc2O1` (centres unmarked) [Compound 7, 3,4-dihydro-6-methoxy-N-(2-propenyl)-2H-1,4-benzoxazine-2-carboxamide] stands 76%.
As for `C=CCNC(=O)C1CNc2cc(NS(C)(=O)=O)ccc2O1` (centres unmarked) [Compound 5, 3,4-dihydro-6-((methylsulfonyl)amino)-N-(2-propenyl)-2H-1,4-benzoxazine-2-carboxamide], the inhibition at 100 µg/mL came to 40%.
